Literature values as cited in patent US20170020838A1, “TREATMENT FOR RESPIRATORY DISEASE” (MUCOKINETICA LIMITED, priority 2014, published 2017).

Tested on: airway ENaC
Conditions: Bridges et al. 2001; cited from earlier work

aprotinin
effect on airway ENaC activity: Down regulation
